Reference: patent US20080227866A1, “Hydroxyphenylalkadiones and Their Use for Masking Bitter Taste and/or for Intensifying Sweet Taste” (SYMRISE GMBH & CO. KG, priority 2005, published 2008)

Key:
[1] = Bitterness reduction in a bitter principle solution, rated by a group of experts (caffeine); assay type: in vivo; settings: 100 ppm substance in aqueous 500 ppm caffeine; for % reduction in the bitter impression: calculated from the average panel values; for Bitter impression (1-10) with: panel mean ± 95% confidence interval
Procedure: In order to quantify the reduction in the bitter impression, the bitterness of an aqueous bitter principle solution and of a sample which contained the same amount of bitter principle and a varying amount of the compound given by way of example was determined by a group of experts ([…]). The evaluation was made as a calculation of the reduction (in %) of the bitter impression from the average values of the estimations of the bitter principle solution and of the solutions containing bitter principle and compound given by way of example. 2,4-Dihydrobenzoic acid (2,4-DHB) was used as a comparison from U.S. Pat. No. 5,643,941. HED means homoeriodictyol sodium salt according to EP 1 258 200 B1.
(§1) Table: Bitterness of a bitter principle solution and of a solution containing bitter principle and a compound given by way of example (2,4-DHB=2,4-dihydroxybenzoic acid, HED=homoeriodictyol sodium salt according to EP 1 258 200 B1). “Testers positive” means the number of testers who were able to detect masking; the 95% confidence intervals are stated as errors; p<x means the significance according to the Student t test method (cf. statistics textbooks), n.s. means not significant.

[2] = Bitterness reduction in a bitter principle solution, rated by a group of experts (quinine hydrochloride); assay type: in vivo; settings: 100 ppm substance in aqueous 5 ppm quinine hydrochloride
Procedure: In order to quantify the reduction in the bitter impression, the bitterness of an aqueous bitter principle solution and of a sample which contained the same amount of bitter principle and a varying amount of the compound given by way of example was determined by a group of experts (classification 0 [not bitter] to 10 [extremely bitter]). The evaluation was made as a calculation of the reduction (in %) of the bitter impression from the average values of the estimations of the bitter principle solution and of the solutions containing bitter principle and compound given by way of example. 2,4-Dihydrobenzoic acid (2,4-DHB) was used as a comparison from U.S. Pat. No. 5,643,941. HED means homoeriodictyol sodium salt according to EP 1 258 200 B1.
as §1

[3] = Intensification of the sweet impression of a sucrose solution, rated by a group of experts; assay type: in vivo; settings: 100 ppm test compound in 5 wt. % sucrose; for % intensification of the sweet impression: calculated from the average panel values; for Sweet impression (1-10) of a 5% strength sucrose solution with Test substance: panel mean ± standard deviation; for number of testers who found the test solution sweeter: second figure in brackets (total/positive)
Procedure: In order to quantify the intensification of the sweet impression, the sweetness of a solution containing 5 wt. % of sucrose and of a sample which contained 5 wt. % of sucrose and 100 ppm of the test compound was determined by a group of experts (classification 0 [not sweet] to 10 [extremely sweet]). The evaluation was made as a calculation of the intensification (in %) of the sweet impression from the average values of the estimations of the sucrose solution and of the solution containing sucrose and compound 2.
Table: Sweetness (a) of a sucrose solution and (b) of a solution containing sucrose and test substance; the standard deviations are stated as errors. In the last column, the total number of testers is stated against the number of testers who found the test solution sweeter.

[4] = described in DE 2 161,528; cited from earlier work

| Compound | Testers positive (number of testers who were able to detect masking) [1] | % reduction in the bitter impression [1] | Bitter impression (1-10) with [1] | Testers positive (number of testers who were able to detect masking) [2] | % reduction in the bitter impression ([2]; calculated from the average panel values) | Bitter impression (1-10) with ([2]; panel mean ± 95% confidence interval) | % intensification of the sweet impression [3] | Sweet impression (1-10) of a 5% strength sucrose solution with Test substance [3] | number of testers who found the test solution sweeter [3] | antihypertensive action [4] |
| --- | --- | --- | --- | --- | --- | --- | --- | --- | --- | --- |
| COc1cc(/C=C/C(=O)CC(C)=O)ccc1O [compound 1, (5E)-6-(4-hydroxy-3-methoxyphenyl)hex-5-ene-2,4-dione] | 9 | 21%, | 5.1 ± 1.0 |  |  |  |  |  |  |  |
| COc1cc(CCC(=O)CC(C)=O)ccc1O [compound 4, 6-(4-hydroxy-3-methoxyphenyl)hexane-2,4-dione] | 15 | 34%, | 3.9 ± 0.8 | 10 | 21%, | 1.3 ± 0.8 | +13% | 5.3 ± 1.6 | 9 |  |
| COc1cc(CCC(=O)C2C(=O)CCC2=O)ccc1O [compound 9, 2-(3-[4-hydroxy-3-methoxyphenyl]propionyl)-cyclopentane-1,3-dione] |  |  |  |  |  |  |  |  |  | weak antihypertensive agent |
| COc1ccc(/C=C/C(=O)CC(C)=O)cc1O [compound 10, (5E)-6-(3-Hydroxy-4-methoxyphenyl)hex-5-ene-2,4-dione] | 12 | 23% | 4.6 ± 0.9 |  |  |  |  |  |  |  |
| COc1ccc(CCC(=O)CC(C)=O)cc1O [compound 11, 6-(3-hydroxy-4-methoxyphenyl)hexane-2,4-dione] | 11 | 17%, n.s. | 4.2 ± 0.8 |  |  |  | +28% | 6.6 ± 1.2 | 13 |  |
| O=C(O)c1ccc(O)cc1O [2,4-DHB, 2,4-dihydroxybenzoic acid, reference compound] | 9 | 3%, n.s. | 5.0 ± 1.0 |  |  |  |  |  |  |  |
